# Reference: patent US20040067959A1, “Morphinoid derivatives as delta-opioid agonists and antagonists” (priority 2000, published 2004)
# How the values were obtained:
# [1] = molecular target: T1, human delta opioid receptors (Homo sapiens, UniProt P41143); test: radioligand binding assay, cloned human delta opioid receptor, [3H]-DADLE
# T1 construct: expressed in transfected cells; membranes
# Description: (§1) The activity of the compounds of the present invention as selective delta ligands is determined in radioligand binding assays using cloned human delta, mu and kappa opioid receptors stably expressed in cell lines as described below.
# (§2) CHO cells were subjected to stable transfection with cDNA encoding the human delta and mu opioid receptors. Clones were grown in suspension culture in serum free media. Selection was performed by growth in the absence of nucleotides.
# (§3) Membranes were prepared as previously described (J. Med. Chem. 1997, 40 3192). The binding of the preferential delta ligand [^3H]-[D-Ala^2,D-Leu^5]-enkephalin (DADLE) was evaluated at its KD concentration (0.7 nM). The binding of the mu ligand [^3H]-DAMGO (Eur. J. Pharmacol., 1989, 166, 213) and of the kappa ligand [^3H]-U69593 (Excerpta Medica, 1990, 211) were carried out at 0.5 nM. Non specific binding was determined in the presence of 10 uM of naloxone. Binding data were expressed as percentage of inhibition and fitted the following equation: f(x)=100·X/(IC50+X) where X is the cold drug concentration value. The IC50 values obtained were used to calculate the inhibitory constants (Ki) according to the Cheng and Prusoff relation (Biochem. Pharmacol., 1973, 22, 3099).
# [2] = molecular target: T2, human mu opioid receptors (Homo sapiens, UniProt P35372); test: radioligand binding assay, cloned human mu opioid receptor, [3H]-DAMGO; conditions: ratio of Ki at human mu ([3H]-DAMGO 0.5 nM) to Ki at human delta
# T2 construct: expressed in transfected cells; membranes
# Description: as §1, §2, §3
# T1 sequence (P41143 whole entry): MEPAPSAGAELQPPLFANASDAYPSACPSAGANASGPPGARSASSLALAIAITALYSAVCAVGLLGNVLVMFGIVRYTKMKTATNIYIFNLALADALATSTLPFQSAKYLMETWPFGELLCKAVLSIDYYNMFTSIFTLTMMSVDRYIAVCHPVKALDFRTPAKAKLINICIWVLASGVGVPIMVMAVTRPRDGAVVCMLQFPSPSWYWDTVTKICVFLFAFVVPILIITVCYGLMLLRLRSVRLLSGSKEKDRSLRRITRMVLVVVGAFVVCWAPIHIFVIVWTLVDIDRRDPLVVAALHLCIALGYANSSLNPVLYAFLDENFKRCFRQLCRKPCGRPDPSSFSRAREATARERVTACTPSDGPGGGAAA
# T2 sequence (P35372 whole entry): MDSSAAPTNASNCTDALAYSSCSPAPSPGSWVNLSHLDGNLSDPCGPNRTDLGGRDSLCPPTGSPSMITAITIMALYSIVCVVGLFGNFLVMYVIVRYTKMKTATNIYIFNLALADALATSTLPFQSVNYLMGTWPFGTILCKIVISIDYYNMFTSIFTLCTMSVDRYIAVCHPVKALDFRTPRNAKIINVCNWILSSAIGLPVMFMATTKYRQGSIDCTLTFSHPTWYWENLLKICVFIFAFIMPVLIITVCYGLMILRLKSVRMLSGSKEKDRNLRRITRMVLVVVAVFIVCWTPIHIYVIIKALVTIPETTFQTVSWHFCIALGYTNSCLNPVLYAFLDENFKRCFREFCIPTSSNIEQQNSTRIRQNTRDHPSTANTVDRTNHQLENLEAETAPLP
SMILES,Ki [1] [pM],Ki mu/Ki delta [2]
COc1ccc2c3c1O[C@H]1c4[nH]c(C(=O)N5CCN(c6ccc(C)cc6C)CC5)c(C)c4C[C@H]4[C@@H](C2)N(C)CC[C@]314 [Example 6],1000,437
COc1ccc(N2CCN(C(=O)c3[nH]c4c(c3C)C[C@H]3[C@H]5Cc6ccc(OC)c7c6[C@@]3(CCN5C)[C@H]4O7)CC2)c(OC)c1 [Example 23],600,1010
